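Each compound was tested at five concentrations against cells in 96-well plates for 48 hours. Here, GI50 denotes the concentration required for 50% inhibition of growth. TGI denotes the concentration required for complete inhibition of growth.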
Columns and labels:
Experiment in all cases: NCI-60 cell line screen, 48 h
786-0 renal = tested on: 786-0 renal
A498 renal = tested on: A498 renal
A549 NSCLC = tested on: A549 NSCLC
ACHN renal = tested on: ACHN renal
BT-549 breast = tested on: BT-549 breast
CAKI-1 renal = tested on: CAKI-1 renal
COLO 205 colon = tested on: COLO 205 colon
EKVX NSCLC = tested on: EKVX NSCLC
HCC-2998 colon = tested on: HCC-2998 colon
HCT-15 colon = tested on: HCT-15 colon
HL-60(TB) leukemia = tested on: HL-60(TB) leukemia
HOP-62 NSCLC = tested on: HOP-62 NSCLC
HOP-92 NSCLC = tested on: HOP-92 NSCLC
HS 578T breast = tested on: HS 578T breast
HT29 colon = tested on: HT29 colon
IGROV1 ovarian = tested on: IGROV1 ovarian
K-562 leukemia = tested on: K-562 leukemia
KM12 colon = tested on: KM12 colon
MALME-3M melanoma = tested on: MALME-3M melanoma
MCF7 breast = tested on: MCF7 breast
MDA-MB-231 breast = tested on: MDA-MB-231 breast
MDA-MB-435 = tested on: MDA-MB-435
MOLT-4 leukemia = tested on: MOLT-4 leukemia
NCI-H226 lung = tested on: NCI-H226 lung
NCI-H23 lung = tested on: NCI-H23 lung
NCI-H460 lung = tested on: NCI-H460 lung
NCI/ADR-RES ovarian = tested on: NCI/ADR-RES ovarian
OVCAR-3 ovarian = tested on: OVCAR-3 ovarian
OVCAR-4 ovarian = tested on: OVCAR-4 ovarian
OVCAR-5 ovarian = tested on: OVCAR-5 ovarian
PC-3 prostate = tested on: PC-3 prostate
RPMI-8226 leukemia = tested on: RPMI-8226 leukemia
RXF 393 renal = tested on: RXF 393 renal
SF-295 CNS = tested on: SF-295 CNS
SF-539 CNS = tested on: SF-539 CNS
SK-MEL-2 melanoma = tested on: SK-MEL-2 melanoma
SK-MEL-28 melanoma = tested on: SK-MEL-28 melanoma
SK-MEL-5 melanoma = tested on: SK-MEL-5 melanoma
SK-OV-3 ovarian = tested on: SK-OV-3 ovarian
SN12C renal = tested on: SN12C renal
SNB-19 CNS = tested on: SNB-19 CNS
SNB-75 CNS = tested on: SNB-75 CNS
SR leukemia = tested on: SR leukemia
SW-620 colon = tested on: SW-620 colon
T-47D breast = tested on: T-47D breast
TK-10 renal = tested on: TK-10 renal
U251 CNS = tested on: U251 CNS
UACC-257 melanoma = tested on: UACC-257 melanoma
UACC-62 melanoma = tested on: UACC-62 melanoma
UO-31 renal = tested on: UO-31 renal

Q: With `CC(=O)OC[C@]12CC[C@@H](C(=O)/C=C/c3cccnc3)[C@@H]1[C@H]1CC[C@@H]3[C@@]4(C)CC[C@H](OC(C)=O)C(C)(C)[C@@H]4CC[C@@]3(C)[C@]1(C)CC2` as the molecule, how does the GI50 (786-0 renal) read?
A: 2420 nM

Q: And the TGI (786-0 renal)?
A: 6710 nM

Q: What about the GI50 (A498 renal) of the same molecule?
A: 1330 nM

Q: What about the TGI (A498 renal) of the same molecule?
A: 2840 nM

Q: What about the GI50 (A549 NSCLC) of the same molecule?
A: 1820 nM

Q: What about the TGI (A549 NSCLC) of the same molecule?
A: 4690 nM

Q: What about the GI50 (ACHN renal) of the same molecule?
A: 1610 nM

Q: What about the TGI (ACHN renal) of the same molecule?
A: 3020 nM

Q: What about the GI50 (BT-549 breast) of the same molecule?
A: 1460 nM

Q: And the TGI (BT-549 breast)?
A: 2870 nM

Q: And the GI50 (CAKI-1 renal)?
A: 1260 nM

Q: And the TGI (CAKI-1 renal)?
A: 2700 nM

Q: And the GI50 (COLO 205 colon)?
A: 1480 nM

Q: And the TGI (COLO 205 colon)?
A: 3370 nM

Q: What about the GI50 (EKVX NSCLC) of the same molecule?
A: 2180 nM

Q: What about the TGI (EKVX NSCLC) of the same molecule?
A: 6990 nM

Q: What about the GI50 (HCC-2998 colon) of the same molecule?
A: 1650 nM

Q: What about the TGI (HCC-2998 colon) of the same molecule?
A: 3230 nM

Q: What about the GI50 (HCT-15 colon) of the same molecule?
A: 1500 nM

Q: And the TGI (HCT-15 colon)?
A: 3340 nM

Q: What about the GI50 (HL-60(TB) leukemia) of the same molecule?
A: 450 nM

Q: What about the TGI (HL-60(TB) leukemia) of the same molecule?
A: 3290 nM

Q: And the GI50 (HOP-62 NSCLC)?
A: 2210 nM

Q: What about the TGI (HOP-62 NSCLC) of the same molecule?
A: 6370 nM

Q: And the GI50 (HOP-92 NSCLC)?
A: 1080 nM

Q: What about the TGI (HOP-92 NSCLC) of the same molecule?
A: 2470 nM

Q: What about the GI50 (HS 578T breast) of the same molecule?
A: 2240 nM

Q: And the TGI (HS 578T breast)?
A: 6610 nM

Q: And the GI50 (HT29 colon)?
A: 1870 nM

Q: What about the TGI (HT29 colon) of the same molecule?
A: 4740 nM

Q: What about the GI50 (IGROV1 ovarian) of the same molecule?
A: 1870 nM

Q: What about the TGI (IGROV1 ovarian) of the same molecule?
A: 4400 nM

Q: And the GI50 (K-562 leukemia)?
A: 903 nM

Q: What about the TGI (K-562 leukemia) of the same molecule?
A: > 100000 nM

Q: What about the GI50 (KM12 colon) of the same molecule?
A: 1690 nM

Q: What about the TGI (KM12 colon) of the same molecule?
A: 4130 nM

Q: What about the GI50 (MALME-3M melanoma) of the same molecule?
A: 1380 nM

Q: And the TGI (MALME-3M melanoma)?
A: 2880 nM

Q: And the GI50 (MCF7 breast)?
A: 1100 nM

Q: What about the TGI (MCF7 breast) of the same molecule?
A: 2420 nM

Q: And the GI50 (MDA-MB-231 breast)?
A: 1500 nM

Q: And the TGI (MDA-MB-231 breast)?
A: 3610 nM

Q: What about the GI50 (MDA-MB-435) of the same molecule?
A: 1410 nM

Q: And the TGI (MDA-MB-435)?
A: 3180 nM

Q: What about the GI50 (MOLT-4 leukemia) of the same molecule?
A: 587 nM

Q: And the TGI (MOLT-4 leukemia)?
A: 4000 nM

Q: And the GI50 (NCI-H226 lung)?
A: 1720 nM

Q: What about the TGI (NCI-H226 lung) of the same molecule?
A: 3850 nM

Q: What about the GI50 (NCI-H23 lung) of the same molecule?
A: 1860 nM

Q: And the TGI (NCI-H23 lung)?
A: 4120 nM

Q: What about the GI50 (NCI-H460 lung) of the same molecule?
A: 1310 nM

Q: And the TGI (NCI-H460 lung)?
A: 3010 nM

Q: What about the GI50 (NCI/ADR-RES ovarian) of the same molecule?
A: 1990 nM

Q: And the TGI (NCI/ADR-RES ovarian)?
A: 4910 nM

Q: And the GI50 (OVCAR-3 ovarian)?
A: 1710 nM

Q: What about the TGI (OVCAR-3 ovarian) of the same molecule?
A: 3290 nM

Q: What about the GI50 (OVCAR-4 ovarian) of the same molecule?
A: 3010 nM

Q: What about the TGI (OVCAR-4 ovarian) of the same molecule?
A: > 100000 nM

Q: What about the GI50 (OVCAR-5 ovarian) of the same molecule?
A: 1820 nM

Q: And the TGI (OVCAR-5 ovarian)?
A: 4070 nM

Q: What about the GI50 (PC-3 prostate) of the same molecule?
A: 820 nM

Q: What about the TGI (PC-3 prostate) of the same molecule?
A: 4140 nM

Q: And the GI50 (RPMI-8226 leukemia)?
A: 839 nM

Q: What about the TGI (RPMI-8226 leukemia) of the same molecule?
A: 3640 nM

Q: What about the GI50 (RXF 393 renal) of the same molecule?
A: 1620 nM

Q: What about the TGI (RXF 393 renal) of the same molecule?
A: 3050 nM

Q: And the GI50 (SF-295 CNS)?
A: 1470 nM

Q: And the TGI (SF-295 CNS)?
A: 3190 nM

Q: And the GI50 (SF-539 CNS)?
A: 1590 nM

Q: And the TGI (SF-539 CNS)?
A: 3070 nM

Q: And the GI50 (SK-MEL-2 melanoma)?
A: 1800 nM

Q: And the TGI (SK-MEL-2 melanoma)?
A: 3780 nM

Q: What about the GI50 (SK-MEL-28 melanoma) of the same molecule?
A: 1440 nM

Q: What about the TGI (SK-MEL-28 melanoma) of the same molecule?
A: 2890 nM

Q: And the GI50 (SK-MEL-5 melanoma)?
A: 1550 nM

Q: What about the TGI (SK-MEL-5 melanoma) of the same molecule?
A: 2970 nM

Q: What about the GI50 (SK-OV-3 ovarian) of the same molecule?
A: 3320 nM

Q: And the TGI (SK-OV-3 ovarian)?
A: 19000 nM

Q: And the GI50 (SN12C renal)?
A: 1590 nM

Q: And the TGI (SN12C renal)?
A: 4350 nM

Q: What about the GI50 (SNB-19 CNS) of the same molecule?
A: 1890 nM

Q: What about the TGI (SNB-19 CNS) of the same molecule?
A: 4640 nM

Q: What about the GI50 (SNB-75 CNS) of the same molecule?
A: 1500 nM

Q: What about the TGI (SNB-75 CNS) of the same molecule?
A: 5000 nM

Q: What about the GI50 (SR leukemia) of the same molecule?
A: 512 nM

Q: And the TGI (SR leukemia)?
A: > 100000 nM

Q: What about the GI50 (SW-620 colon) of the same molecule?
A: 1470 nM

Q: What about the TGI (SW-620 colon) of the same molecule?
A: 3420 nM

Q: What about the GI50 (T-47D breast) of the same molecule?
A: 1060 nM

Q: And the TGI (T-47D breast)?
A: 3530 nM

Q: And the GI50 (TK-10 renal)?
A: 1850 nM

Q: What about the TGI (TK-10 renal) of the same molecule?
A: 3630 nM

Q: What about the GI50 (U251 CNS) of the same molecule?
A: 1600 nM

Q: And the TGI (U251 CNS)?
A: 3350 nM

Q: What about the GI50 (UACC-257 melanoma) of the same molecule?
A: 1900 nM

Q: What about the TGI (UACC-257 melanoma) of the same molecule?
A: 4680 nM

Q: And the GI50 (UACC-62 melanoma)?
A: 1670 nM

Q: And the TGI (UACC-62 melanoma)?
A: 4080 nM

Q: What about the GI50 (UO-31 renal) of the same molecule?
A: 1370 nM

Q: And the TGI (UO-31 renal)?
A: 2670 nM

Source: PubChem BioAssay (NCI)
